Experimental data published in paper PMC9400670, “Establishing the selective phospholipid membrane coordination, permeation and lysis properties for a series of ‘druggable’ supramolecular self-associating antimicrobial amphiphiles” (Chemical Science, 2022).

Test system: DPH-labelled synthetic vesicles
Assay: Synthetic vesicle membrane fluidity assay (DPH fluorescence polarisation)
Settings: increasing SSA concentration; polar phospholipid membranes, excluding PC only; 298 K
Experimental: To further explore the effects of SSAs on physical phospholipid membrane characteristics, membrane fluidity experiments were performed. Here a dye (1,6-diphenyl-1,3,5-hexatriene – DPH) was inserted into the synthetic vesicle membrane to enable the study of increased/decreased membrane fluidity through competitive fluorescence polarisation (FP) measurements. In these studies, FP values are found to decrease with increasing membrane fluidity and vice versa. However, these studies could only be performed with SSAs 1–4 and 7 due to overlapping SSA/DHP fluorescence emission.
Section 2: General Methods […]
All solvents and starting materials were purchased from known chemical suppliers or available stores and used without any further purification unless specifically stipulated. […] Fluorescence and fluorescence polarisation measurements were conducted using a Clariostar plate reader and analysed using MARS data analysis […]
Preparation of calcein loaded vesicles: Lipid films were resuspended in buffer A (70 mM calcein, 10 mM TRIS pH 8.5, 0.5 mM EDTA, 110 mM NaCl, pH adjusted to 6-7) and subjected to 9 freeze-thaw cycles in liquid nitrogen and extruded 20 times through a 200 nm polycarbonate membrane. […] The hydrodynamic dimeter of the lipids was monitored using an Anton Paar LitesizerTM 500 to ensure the separation of free and entrapped calcein. […]

O=C(O)CNC(=O)Nc1ccc(C(F)(F)F)cc1 [SSA 4]
overall change in FP (membrane fluidity): > 10%
